The values that follow are results of earlier work, collected in US7479499B2 (Celgene Corporation, priority 2000, dated 2009).

Data set [1] relates to metastatic colorectal cancer patients.
For data set [2], the system named is patients with metastatic colorectal cancer. The settings on record: irinotecan monotherapy.
The mark [3] stands for this setting: second line treatment of colorectal cancer after 5FU.

SMILES strings stand for the structures.

On to `O=c1[nH]cc(F)c(=O)[nH]1` [5FU, 5-fluorouracil], for which, in data set [1] (metastatic colorectal cancer), the complete responses result is given as “extremely rare” and the “partial responses, share of patients” value is recorded as “less than 25%”.
Regarding `CCc1c2c(nc3ccc(OC(=O)N4CCC(N5CCCCC5)CC4)cc13)-c1cc3c(c(=O)n1C2)COC(=O)[C@]3(O)CC` [Irinotecan, (4S)-4,11-diethyl-4-hydroxy-9-[(4-piperidino-piperidino)carbonyl-oxy]1H-pyranol-[3′,4′:6,7]indolizinol[1,2-b]quinoline-3,14-(4H,12H)dione], the “Expected (%) Grade 1-4 Abdominal colic/pain” value in data set [2] (abdominal colic/pain, grade 1-4) is 23.7%. In addition, in data set [2] (abdominal colic/pain, grade 3-4), the “Expected (%) Grade 3-4 Abdominal colic/pain” value is 2.3%. The “Expected (%) Grade 1-4 Asthenia” value in data set [2] (asthenia, grade 1-4) is reported as 75.7%. Moreover, the “Expected (%) Grade 3-4 Asthenia” value in data set [2] (asthenia, grade 3-4) is 12.2%. Further, in data set [2] (constipation, grade 1-4), the “Expected (%) Grade 1-4 Constipation” value was 29.9%. Also, the “Expected (%) Grade 3-4 Constipation” value in data set [2] (constipation, grade 3-4) is recorded as 2.0%. Further, the “Expected (%) Grade 1-4 Diarrhea (Late)” value in data set [2] (late diarrhea, grade 1-4) is recorded as 87.8%. For the same compound, the “Expected (%) Grade 3-4 Diarrhea (Late)” value in data set [2] (late diarrhea, grade 3-4) was 30.6%. Further, the “Expected (%) Grade 1-4 Nausea” value in data set [2] (nausea, grade 1-4) is 86.2%. Moreover, the “Expected (%) Grade 1-4 Vomiting” value in data set [2] (vomiting, grade 1-4) was 66.8%. The “Expected (%) Grade 3-4 Vomiting” value in data set [2] (vomiting, grade 3-4) was 12.5%. Further, the “debilitating (Grade 3-4) late onset diarrhea, share of patients” value in data set [1] (late onset: more than 24 hours after administration) is 30-40%. Further, in data set [1] (setting [3]), the complete response rate result is “less than one percent”, the “median duration of response” value is recorded as 6.4 months and the overall response rates entry is given as “less than 20%”. For the same compound, the “early onset diarrhea, frequency” value in data set [1] (within 24 hours of drug administration) is “uncommon”.
